In ChEMBL document CHEMBL5143714, “Discovery of BMS-986339, a Pharmacologically Differentiated Farnesoid X Receptor Agonist for the Treatment of Nonalcoholic Steatohepatitis” (J Med Chem, 2022):

What was measured:
[1] = target: T1, Bile acid receptor (Homo sapiens, UniProt Q96RI1); test: Agonist activity at Gal4-fused human FXR in HEK293 cells incubated for 15 min by luciferase reporter assay; format: cell-based
T1 sequence (Q96RI1 whole entry): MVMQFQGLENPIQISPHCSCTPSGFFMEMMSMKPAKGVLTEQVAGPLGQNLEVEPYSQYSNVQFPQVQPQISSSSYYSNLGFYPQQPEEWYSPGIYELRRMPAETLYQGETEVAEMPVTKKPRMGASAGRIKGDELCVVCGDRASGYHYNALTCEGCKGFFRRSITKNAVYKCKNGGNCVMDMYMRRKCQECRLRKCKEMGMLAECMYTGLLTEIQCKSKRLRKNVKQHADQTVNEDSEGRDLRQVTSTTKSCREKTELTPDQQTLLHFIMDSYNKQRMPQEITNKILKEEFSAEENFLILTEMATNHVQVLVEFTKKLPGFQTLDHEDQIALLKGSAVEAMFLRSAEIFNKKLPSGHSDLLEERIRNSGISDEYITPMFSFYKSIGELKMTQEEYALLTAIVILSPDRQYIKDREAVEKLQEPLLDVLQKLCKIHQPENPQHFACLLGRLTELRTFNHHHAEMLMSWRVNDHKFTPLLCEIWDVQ

[2] = Metabolic stability in mouse liver microsome assessed as parent compound remaining at 1 mg/mL measured after 10 mins; format: ADME; details: liver microsomes, read-out: Stability
[3] = target: T2, Bile acid receptor (Mus musculus) (UniProt Q60641); test: Agonist activity at LBD-fused mouse FXR in HEK293 cells incubated for 30 min by envision plate reader method relative to GW2064; format: cell-based; details: filed as agonist
T2 sequence (whole entry): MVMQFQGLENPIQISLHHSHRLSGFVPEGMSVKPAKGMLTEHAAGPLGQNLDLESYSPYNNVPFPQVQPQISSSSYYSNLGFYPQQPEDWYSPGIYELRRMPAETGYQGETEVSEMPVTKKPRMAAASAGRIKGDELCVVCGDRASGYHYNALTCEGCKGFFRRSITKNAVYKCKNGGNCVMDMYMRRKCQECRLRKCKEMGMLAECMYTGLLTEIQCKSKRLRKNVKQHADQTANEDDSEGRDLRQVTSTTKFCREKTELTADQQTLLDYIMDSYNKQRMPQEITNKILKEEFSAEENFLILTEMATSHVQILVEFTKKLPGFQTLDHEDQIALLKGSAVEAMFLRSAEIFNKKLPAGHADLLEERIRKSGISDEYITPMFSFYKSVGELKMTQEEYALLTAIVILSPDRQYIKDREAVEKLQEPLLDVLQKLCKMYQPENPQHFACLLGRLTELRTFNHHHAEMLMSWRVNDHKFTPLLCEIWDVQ

[4] = target: T3, Bile acid receptor (Homo sapiens) (UniProt Q96RI1); test: Agonist activity at LBD-fused human FXR in HEK293 cells incubated for 30 min by envision plate reader method relative to GW2064; format: cell-based
T3 sequence (whole entry): T1 sequence (Q96RI1 whole entry)

[5] = system: Bile acid receptor (Homo sapiens); test: Agonist activity at human FXR expressed in HEK293 cells coexpressing human FGF19 incubated for 24 hrs by ELISA analysis relative to GW2064
[6] = Metabolic stability in rat liver microsome assessed as parent compound remaining at 1 mg/mL measured after 10 mins; format: ADME; details: liver microsomes, read-out: Stability
[7] = Metabolic stability in human liver microsome assessed as parent compound remaining at 1 mg/mL measured after 10 mins; format: ADME; details: liver microsomes, read-out: Stability
[8] = system: Bile acid receptor (Homo sapiens); test: Agonist activity at human FXR expressed in HEK293 cells coexpressing IBABP relative to GW2064; details: filed as agonist
[9] = target: T4, Bile acid receptor (Mus musculus, UniProt Q60641); test: Agonist activity at mouse LBD fused FXR in HEK293 cells incubated for 30 min by envision plate reader method; format: cell-based
T4 sequence (Q60641 whole entry): T2 sequence (whole entry)

COC(=O)/C=C/c1cccc(N(CC23CCC(c4ccc(N(C)C)cc4)(CC2)CC3)C(=O)C2CCCCC2)c1
EC50 [1]: 66 nM | remaining at 10 min [2]: 77% | Emax [3]: 279% | Emax [4]: 30% | Emax [5]: 24% | remaining at 10 min, 1 mg/mL [6]: 32% | remaining at 10 min [7]: 90% | Emax [8]: 42%

O=C(O)c1cc(C(F)(F)F)c2cc(N3CCC4(C=C(c5c(-c6c(Cl)cncc6Cl)noc5C5CC5)C4)CC3)ccc2n1
EC50 [9]: 320 nM
